Measured values as given in patent US20240270821A1, “GIP/GLP1/GCG TRI-RECEPTOR AGONISTS AND USES THEREOF” (priority 2023, published 2024).
Starred links: 1 amine or outer side, 2 acyl side, 3 side chain; linkers in the order of their positions; H or OH if unused. Non-standard residues stand in square brackets, D forms with d. Residues, ends and D or L forms follow the SMILES beside them. Groups on a side chain read outwards from the residue. *: point of attachment. C18 diacid = O=C(O)CCCCCCCCCCCCCCCCC(=O)*; αMePhe(2-F) = C[C@](N)(Cc1ccccc1F)C(=O)O; γGlu = O=C(O)[C@H](CCC(=O)[*:2])N[*:1]; αMeY = C[C@](N)(Cc1ccc(O)cc1)C(=O)O; 4Pal = N[C@@H](Cc1ccncc1)C(=O)O; αMeL = CC(C)C[C@](C)(N)C(=O)O; αMeS = C[C@](N)(CO)C(=O)O; Orn = NCCC[C@H](N)C(=O)O; Aib = CC(C)(N)C(=O)O

Legend:
Assay type in all cases: cell-based
hGLP-1R [1] = biological target: T1, hGLP-1R (Homo sapiens, UniProt P43220); assay: Functional cAMP activation in the presence of 0.1% casein (no HSA); settings: read-out: Relative cAMP EC50, hGLP-1R;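 note: intracellular cAMP rise after 30 min at 37 °C read by HTRF, normalized between buffer only (0%) and maximal control ligand (100%), four-parameter variable-slope fit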
hGIPR [2] = biological target: T2, hGIPR (Homo sapiens, UniProt P48546); assay: Functional cAMP activity in the presence of 1% HSA; settings: read-out: cAMP Rel EC50, hGIPR
T2 sequence (P48546 22-466): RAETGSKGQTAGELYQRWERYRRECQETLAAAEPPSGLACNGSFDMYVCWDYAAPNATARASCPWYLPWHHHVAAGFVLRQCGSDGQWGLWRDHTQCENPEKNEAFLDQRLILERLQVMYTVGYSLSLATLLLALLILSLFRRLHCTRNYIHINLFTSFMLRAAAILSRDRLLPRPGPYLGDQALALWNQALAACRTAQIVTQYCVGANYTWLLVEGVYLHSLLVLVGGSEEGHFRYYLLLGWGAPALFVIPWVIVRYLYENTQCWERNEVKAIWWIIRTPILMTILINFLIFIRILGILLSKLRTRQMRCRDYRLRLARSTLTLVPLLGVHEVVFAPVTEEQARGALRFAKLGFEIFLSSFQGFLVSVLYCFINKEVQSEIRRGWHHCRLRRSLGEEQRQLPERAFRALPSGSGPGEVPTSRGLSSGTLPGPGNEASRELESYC

hGcgR = hGcgR (Homo sapiens, UniProt P47871); assay: Functional cAMP activation in the presence of 0.1% casein (no HSA); settings: read-out: Relative cAMP EC50, hGcgR;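 note: intracellular cAMP rise after 30 min at 37 °C, read by HTRF against a cAMP standard curve, scaled from buffer only (0%) to maximal control ligand response (100%)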
hGIPR [3] = biological target: T2, hGIPR; assay: as above; settings: read-out: Relative cAMP EC50, hGIPR
human GcgR = human GcgR (Homo sapiens, UniProt P47871); assay: Functional cAMP activity in the presence of 1% HSA; settings: read-out: cAMP Rel EC50, hGcgR
hGLP-1R [4] = biological target: T1, hGLP-1R; assay: Functional cAMP activity in the presence of 1% HSA; settings: read-out: cAMP Rel EC50, hGLP-1R
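Throughout, for Relative cAMP EC50, hGIPR: intracellular cAMP rise after 30 min at 37 °C read by HTRF against a standard curve, scaled between buffer alone (0%) and top control ligand concentration (100%), four-parameter fit.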

T1 sequence (P43220 24-463): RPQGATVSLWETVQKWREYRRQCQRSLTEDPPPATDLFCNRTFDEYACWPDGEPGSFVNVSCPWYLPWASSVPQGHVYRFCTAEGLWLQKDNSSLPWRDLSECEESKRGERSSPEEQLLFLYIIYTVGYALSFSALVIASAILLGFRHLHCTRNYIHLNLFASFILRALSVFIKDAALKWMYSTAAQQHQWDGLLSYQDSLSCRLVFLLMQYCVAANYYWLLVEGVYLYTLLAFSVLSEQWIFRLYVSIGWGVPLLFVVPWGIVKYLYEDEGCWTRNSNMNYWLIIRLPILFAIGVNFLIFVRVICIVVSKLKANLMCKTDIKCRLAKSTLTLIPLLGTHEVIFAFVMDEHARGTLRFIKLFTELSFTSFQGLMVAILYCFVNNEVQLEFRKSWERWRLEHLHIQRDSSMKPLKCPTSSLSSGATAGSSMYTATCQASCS
Chain of hGcgR (P47871 26-477): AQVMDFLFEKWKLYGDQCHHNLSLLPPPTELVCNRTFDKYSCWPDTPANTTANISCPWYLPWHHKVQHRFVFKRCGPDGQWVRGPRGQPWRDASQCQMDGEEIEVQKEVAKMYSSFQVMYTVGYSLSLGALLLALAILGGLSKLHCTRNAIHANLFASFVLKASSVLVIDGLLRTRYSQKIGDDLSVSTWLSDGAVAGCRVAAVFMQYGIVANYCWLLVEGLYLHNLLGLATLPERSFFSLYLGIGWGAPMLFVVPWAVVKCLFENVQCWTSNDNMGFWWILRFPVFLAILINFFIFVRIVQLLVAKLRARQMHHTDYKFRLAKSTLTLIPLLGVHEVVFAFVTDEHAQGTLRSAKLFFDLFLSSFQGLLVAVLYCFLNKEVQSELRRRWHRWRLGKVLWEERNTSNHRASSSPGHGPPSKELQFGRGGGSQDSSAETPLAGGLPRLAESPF
Chain of human GcgR (P47871 26-477): as above

EC50 (hGLP-1R [1]) | EC50 (hGIPR [2]) | EC50 (hGcgR) | EC50 (hGIPR [3]) | EC50 (human GcgR) | EC50 (hGLP-1R [4]) | SMILES
0.173 nM | 1.18 nM | 2.27 nM | 0.0294 nM | 182 nM | 11.7 nM | CC[C@H](C)[C@H](NC(=O)[C@H](CC(C)C)NC(=O)[C@](C)(Cc1ccc(O)cc1)NC(=O)[C@@H](CCC(=O)O)NC(=O)[C@@H](NC(=O)[C@H](Cc1ccccc1)NC(=O)[C@H](CO)NC(=O)C(C)(C)NC(=O)[C@H](CCC(N)=O)NC(=O)[C@H](C)NC(=O)[C@H](CCCCNC(=O)CC[C@H](NC(=O)CC[C@H](NC(=O)CCCCCCCCCCCCCCCCC(=O)O)C(=O)O)C(=O)O)NC(=O)[C@H](CCCN)NC(=O)[C@H](CC(=O)O)NC(=O)[C@H](CC(C)C)NC(=O)[C@](C)(CC(C)C)NC(=O)[C@@H](NC(=O)[C@](C)(CO)NC(=O)[C@H](Cc1ccncc1)NC(=O)[C@H](CC(=O)O)NC(=O)[C@H](CO)NC(=O)[C@@H](NC(=O)[C@](C)(Cc1ccccc1F)NC(=O)[C@@H](NC(=O)CNC(=O)[C@H](CCC(N)=O)NC(=O)C(C)(C)NC(=O)[C@@H](N)Cc1ccc(O)cc1)[C@@H](C)O)[C@@H](C)O)[C@@H](C)CC)[C@@H](C)CC)C(=O)N[C@@H](CCC(=O)O)C(=O)NCC(=O)NCC(=O)N1CCC[C@H]1C(=O)N[C@@H](CO)C(=O)N[C@@H](CO)C(=O)NCC(=O)N[C@@H](CCC(=O)O)C(=O)N1CCC[C@H]1C(=O)N1CCC[C@H]1C(=O)N1CCC[C@H]1C(=O)N[C@@H](CCC(=O)O)C(N)=O [Example 436] (H-Y[Aib]QGT[αMePhe(2-F)]TSD[4Pal][αMeS]I[αMeL]LD[Orn]K([γGlu-γGlu-C18 diacid])AQ[Aib]SFI[dE][αMeY]LIEGGPSSGEPPPE-NH2; N-terminus assumed)
0.421 nM | 16.9 nM | 1.76 nM | 0.0872 nM | 188 nM | 26.9 nM | CC[C@H](C)[C@H](NC(=O)[C@H](Cc1ccccc1)NC(=O)[C@H](CCCN)NC(=O)C(C)(C)NC(=O)[C@H](CCC(N)=O)NC(=O)[C@H](C)NC(=O)[C@H](CCCCNC(=O)CC[C@H](NC(=O)CC[C@H](NC(=O)CCCCCCCCCCCCCCCCC(=O)O)C(=O)O)C(=O)O)NC(=O)[C@H](CCCN)NC(=O)[C@H](CC(=O)O)NC(=O)[C@H](CC(C)C)NC(=O)[C@](C)(CC(C)C)NC(=O)[C@@H](NC(=O)[C@](C)(CO)NC(=O)[C@H](Cc1ccncc1)NC(=O)[C@H](CC(=O)O)NC(=O)[C@H](CO)NC(=O)[C@@H](NC(=O)[C@](C)(Cc1ccccc1F)NC(=O)[C@@H](NC(=O)CNC(=O)[C@H](CCC(N)=O)NC(=O)C(C)(C)NC(=O)[C@@H](N)Cc1ccc(O)cc1)[C@@H](C)O)[C@@H](C)O)[C@@H](C)CC)C(=O)N[C@H](CCC(=O)O)C(=O)N[C@@](C)(Cc1ccc(O)cc1)C(=O)N[C@@H](CC(C)C)C(=O)N[C@@H](C)C(=O)N[C@@H](CCC(=O)O)C(=O)NCC(=O)NCC(=O)N1CCC[C@H]1C(=O)N[C@@H](CO)C(=O)N[C@@H](CO)C(=O)NCC(=O)N[C@@H](CCC(=O)O)C(=O)N1CCC[C@H]1C(=O)N1CCC[C@H]1C(=O)N1CCC[C@H]1C(=O)N[C@@H](CCC(=O)O)C(N)=O [Example 437] (H-Y[Aib]QGT[αMePhe(2-F)]TSD[4Pal][αMeS]I[αMeL]LD[Orn]K([γGlu-γGlu-C18 diacid])AQ[Aib][Orn]FI[dE][αMeY]LAEGGPSSGEPPPE-NH2)
0.815 nM | 53.8 nM | 3.62 nM | 0.225 nM | 431 nM | 41.1 nM | CC[C@H](C)[C@H](NC(=O)[C@H](Cc1ccccc1)NC(=O)[C@H](CCCN)NC(=O)C(C)(C)NC(=O)[C@H](CCC(N)=O)NC(=O)[C@H](C)NC(=O)[C@H](CCCCNC(=O)CC[C@H](NC(=O)CC[C@H](NC(=O)CCCCCCCCCCCCCCCCC(=O)O)C(=O)O)C(=O)O)NC(=O)[C@H](CCCN)NC(=O)[C@H](CC(=O)O)NC(=O)[C@H](CC(C)C)NC(=O)[C@](C)(CC(C)C)NC(=O)[C@@H](NC(=O)[C@](C)(CO)NC(=O)[C@H](Cc1ccncc1)NC(=O)[C@H](CC(=O)O)NC(=O)[C@H](CO)NC(=O)[C@@H](NC(=O)[C@](C)(Cc1ccccc1F)NC(=O)[C@@H](NC(=O)CNC(=O)[C@H](CCC(N)=O)NC(=O)C(C)(C)NC(=O)[C@@H](N)Cc1ccc(O)cc1)[C@@H](C)O)[C@@H](C)O)[C@@H](C)CC)C(=O)N[C@H](CCC(=O)O)C(=O)N[C@@](C)(Cc1ccc(O)cc1)C(=O)N[C@@H](CC(C)C)C(=O)N[C@@H](CO)C(=O)N[C@@H](CCC(=O)O)C(=O)NCC(=O)NCC(=O)N1CCC[C@H]1C(=O)N[C@@H](CO)C(=O)N[C@@H](CO)C(=O)NCC(=O)N[C@@H](CCC(=O)O)C(=O)N1CCC[C@H]1C(=O)N1CCC[C@H]1C(=O)N1CCC[C@H]1C(=O)N[C@@H](CCC(=O)O)C(N)=O [Example 438] (H-Y[Aib]QGT[αMePhe(2-F)]TSD[4Pal][αMeS]I[αMeL]LD[Orn]K([γGlu-γGlu-C18 diacid])AQ[Aib][Orn]FI[dE][αMeY]LSEGGPSSGEPPPE-NH2)

SMILES | EC50 (hGLP-1R [1]) | EC50 (hGIPR [2]) | EC50 (hGcgR) | EC50 (hGIPR [3]) | EC50 (human GcgR) | EC50 (hGLP-1R [4])
CC[C@H](C)[C@H](NC(=O)[C@H](Cc1ccccc1)NC(=O)[C@H](C)NC(=O)C(C)(C)NC(=O)[C@H](CCC(N)=O)NC(=O)[C@H](C)NC(=O)[C@H](CCCCNC(=O)COCCOCCNC(=O)CC[C@H](NC(=O)CCCCCCCCCCCCCCCCC(=O)O)C(=O)O)NC(=O)[C@H](CCCCN)NC(=O)[C@H](CC(=O)O)NC(=O)[C@H](CC(C)C)NC(=O)[C@](C)(CC(C)C)NC(=O)[C@@H](NC(=O)[C@H](CO)NC(=O)[C@H](Cc1ccc(O)cc1)NC(=O)[C@H](CC(=O)O)NC(=O)[C@H](CO)NC(=O)[C@@H](NC(=O)[C@](C)(Cc1ccccc1F)NC(=O)[C@@H](NC(=O)CNC(=O)[C@H](CCC(N)=O)NC(=O)C(C)(C)NC(=O)[C@@H](N)Cc1ccc(O)cc1)[C@@H](C)O)[C@@H](C)O)[C@@H](C)CC)C(=O)N[C@@H](CCC(=O)O)C(=O)N[C@@H](Cc1ccc(O)cc1)C(=O)N[C@@H](CC(C)C)C(=O)N[C@@H](CCC(=O)O)C(=O)N[C@@H](CCC(=O)O)C(=O)NCC(=O)NCC(=O)N1CCC[C@H]1C(=O)N[C@@H](CO)C(=O)N[C@@H](CO)C(=O)NCC(=O)N[C@@H](C)C(=O)N1CCC[C@H]1C(=O)N1CCC[C@H]1C(=O)N1CCC[C@H]1C(=O)N[C@@H](CO)C(=O)N[C@@H](CCC(=O)O)C(=O)NCC(N)=O [Example 431] | 0.392 nM | 3.73 nM | 3.32 nM | 0.0157 nM | 352 nM | 35.2 nM
CC[C@H](C)[C@H](NC(=O)[C@H](Cc1ccccc1)NC(=O)[C@H](C)NC(=O)C(C)(C)NC(=O)[C@H](CCC(N)=O)NC(=O)[C@H](C)NC(=O)[C@H](CCCCNC(=O)CC[C@H](NC(=O)CC[C@H](NC(=O)CCCCCCCCCCCCCCCCC(=O)O)C(=O)O)C(=O)O)NC(=O)[C@H](CCCCN)NC(=O)[C@H](CC(=O)O)NC(=O)[C@H](CC(C)C)NC(=O)[C@H](CC(C)C)NC(=O)[C@@H](NC(=O)[C@H](CO)NC(=O)[C@H](Cc1ccc(O)cc1)NC(=O)[C@H](CC(=O)O)NC(=O)[C@H](CO)NC(=O)[C@@H](NC(=O)[C@](C)(Cc1ccccc1F)NC(=O)[C@@H](NC(=O)CNC(=O)[C@H](CCC(N)=O)NC(=O)C(C)(C)NC(=O)[C@@H](N)Cc1ccc(O)cc1)[C@@H](C)O)[C@@H](C)O)[C@@H](C)CC)C(=O)N[C@@H](CCC(=O)O)C(=O)N[C@@H](Cc1ccc(O)cc1)C(=O)N[C@@H](CC(C)C)C(=O)N[C@@H](CCC(=O)O)C(=O)N[C@@H](CCC(=O)O)C(=O)NCC(=O)NCC(=O)N1CCC[C@H]1C(=O)N[C@@H](CO)C(=O)N[C@@H](CO)C(=O)NCC(=O)N[C@@H](C)C(=O)N1CCC[C@H]1C(=O)N1CCC[C@H]1C(=O)N1CCC[C@H]1C(=O)N[C@@H](CO)C(=O)N[C@@H](CCC(=O)O)C(N)=O [Example 433] (H-Y[Aib]QGT[αMePhe(2-F)]TSDYSILLDKK([γGlu-γGlu-C18 diacid])AQ[Aib]AFIEYLEEGGPSSGAPPPSE-NH2; N-terminus assumed) | 0.273 nM | 15.3 nM | 5.78 nM | 0.0206 nM | 532 nM | 43.4 nM
